Experiments:
[1] = Solubility of the compound in glycerol; format: physicochemical
[2] = test system: OVCAR-3; test: Induction of DNA damage in human OVCAR3 cells assessed as increase in gamma-H2AX levels at 10 uM in presence of topotecan; format: functional
[3] = test system: Mus musculus; test: Toxicity in nude mouse xenografted with human OVCAR3 cells assessed as mortality at 100 to 200 mg/kg, po qd measured on day 5,6,7,20,27 during compound dosing in presence of cisplatin dosed every 7 days for 28 days; format: organism-based; conditions: in vivo
[4] = test system: OVCAR-3; test: Antitumor activity against human OVCAR3 cells xenografted in athymic nude mouse assessed as tumor growth at 100 to 200 mg/kg, po qd administered for 3 days in presence of 5 mg/kg cisplatin dosed every 7 days for 28 days (reference value: 78.04 mm3/day); format: functional
[5] = test system: A549; test: Suppression of carboplatin induced Rad51 expression in human A549 cells at 0.71 uM after 24 hrs by probing blot analysis; format: functional; conditions: A549, 24 h
[6] = test system: A549; test: Suppression of carboplatin induced Rad51 expression in human A549 cells at 3.82 uM after 24 hrs by probing blot analysis; format: functional; conditions: A549, 24 h
[7] = Cmax in female rat at 5 mg/kg, iv at 5 mins; format: ADME, organism-based; set-up: dose 5 mg/kg, route intravenous; conditions: in vivo
[8] = Tmax in male rat at 5 mg/kg, iv; format: ADME, organism-based; conditions: in vivo
[9] = Tmax in rat at 25 mg/kg administered via oral gavage; format: ADME, organism-based; conditions: in vivo
[10] = test system: Rattus norvegicus; test: Acute toxicity in Sprague-Dawley rat assessed as clinical abnormalities at 100 to 2000 mg/kg administered as single dose via oral gavage measured 1 to 72 hrs post dose; format: organism-based; conditions: in vivo
[11] = test system: Canis familiaris; test: Acute toxicity in dog at 30 to 2000 mg/kg, po administered as single dose capsule measured over 24 hrs; format: organism-based, Canis lupus familiaris; conditions: in vivo
[12] = test system: Canis familiaris; test: Acute toxicity in dog assessed as mortality at 30 to 2000 mg/kg, po administered as single dose capsule measured over 24 hrs; format: organism-based, Canis lupus familiaris; conditions: in vivo
[13] = test system: Rattus norvegicus; test: Chronic toxicity in male rat assessed as hunched posture at 20 to 200 mg/kg/day, po administered for 28 days; format: organism-based; conditions: in vivo, 672 h
[14] = test system: Rattus norvegicus; test: Chronic toxicity in female rat assessed as hunched posture at 6 to 100 mg/kg/day, po administered for 28 days; format: organism-based; conditions: in vivo, 672 h
[15] = test system: Rattus norvegicus; test: Chronic toxicity in male rat assessed as soft feces at 20 to 200 mg/kg/day, po administered for 28 days; format: organism-based; conditions: in vivo, 672 h
[16] = test system: Rattus norvegicus; test: Chronic toxicity in female rat assessed as sporadic occurrence of hair loss at 6 to 100 mg/kg/day, po administered for 28 days; format: organism-based; conditions: in vivo, 672 h
[17] = test system: Rattus norvegicus; test: Chronic toxicity in female rat assessed as weight gain at 6 to 100 mg/kg/day, po administered for 28 days measured during compound dosing; format: organism-based; conditions: in vivo, 672 h
[18] = test system: Rattus norvegicus; test: Chronic toxicity in male rat assessed as decrease in food consumption at 200 mg/kg/day, po administered for 28 days; format: organism-based; conditions: in vivo, 672 h
[19] = test system: Rattus norvegicus; test: Chronic toxicity in female rat assessed as decrease in food consumption at 60 to 100 mg/kg/day, po administered for 28 days; format: organism-based; conditions: in vivo, 672 h
[20] = test system: Rattus norvegicus; test: Chronic toxicity in male rat assessed as decrease in food consumption at 200 mg/kg/day, po administered for 28 days measured after cessation of dosing; format: organism-based; conditions: in vivo, 672 h
[21] = test system: Rattus norvegicus; test: Chronic toxicity in male rat assessed as ophthalmologic changes at 200 mg/kg/day, po administered for 28 days; format: organism-based; conditions: in vivo, 672 h
[22] = test system: Rattus norvegicus; test: Chronic toxicity in female rat assessed as hematological changes at 60 to 100 mg/kg/day, po administered for 28 days; format: organism-based; conditions: in vivo, 672 h
[23] = test system: Rattus norvegicus; test: Chronic toxicity in male rat assessed as decrease in glucose levels at 200 mg/kg/day, po administered for 28 days; format: organism-based; conditions: in vivo, 672 h
[24] = test system: Rattus norvegicus; test: Chronic toxicity in male rat assessed as decrease in triglyceride levels at 200 mg/kg/day, po administered for 28 days; format: organism-based; conditions: in vivo, 672 h
[25] = test system: Rattus norvegicus; test: Chronic toxicity in male rat assessed as sporadic alterations in organ weight at 200 mg/kg/day, po administered for 28 days; format: organism-based; conditions: in vivo, 672 h
[26] = test system: Rattus norvegicus; test: Chronic toxicity in female rat assessed as sporadic alterations in organ weight at 60 to 100 mg/kg/day, po administered for 28 days; format: organism-based; conditions: in vivo, 672 h
[27] = test system: Rattus norvegicus; test: Chronic toxicity in male rat assessed as effect on organs at 200 mg/kg/day, po administered for 28 days; format: organism-based; conditions: in vivo, 672 h
[28] = test system: Rattus norvegicus; test: Chronic toxicity in female rat assessed as effect on organs at 60 to 100 mg/kg/day, po administered for 28 days; format: organism-based; conditions: in vivo, 672 h
[29] = Chronic toxicity in po dosed female rat assessed as no observable adverse effect level administered daily for 28 days; format: organism-based; conditions: in vivo
[30] = test system: Rattus norvegicus; test: Chronic toxicity in po dosed male rat assessed as severely toxic dose administered daily for 28 days; format: organism-based; conditions: in vivo, 672 h
[31] = test system: Canis familiaris; test: Chronic toxicity in male dog assessed as increase in soft feces/diarrhea at 100 to 300 mg/kg/day, po administered for 28 days; format: organism-based, Canis lupus familiaris; conditions: in vivo, 672 h
[32] = test system: Canis familiaris; test: Chronic toxicity in male dog assessed as discolored feces at 30 to 300 mg/kg/day, po administered for 28 days; format: organism-based, Canis lupus familiaris; conditions: in vivo, 672 h
[33] = test system: Canis familiaris; test: Chronic toxicity in male dog assessed as mucoid feces at 30 to 300 mg/kg/day, po administered for 28 days; format: organism-based, Canis lupus familiaris; conditions: in vivo, 672 h
[34] = test system: Canis familiaris; test: Chronic toxicity in dog assessed as mortality up to 300 mg/kg/day, po administered for 28 days; format: organism-based, Canis lupus familiaris; conditions: in vivo, 672 h
[35] = test system: Canis familiaris; test: Chronic toxicity in female dog assessed as increase in emesis at 300 mg/kg/day, po administered for 28 days; format: organism-based, Canis lupus familiaris; conditions: in vivo, 672 h
[36] = test system: Canis familiaris; test: Chronic toxicity in female dog assessed as soft feces/diarrhea at 100 to 300 mg/kg/day, po administered for 28 days; format: organism-based, Canis lupus familiaris; conditions: in vivo, 672 h
[37] = test system: Canis familiaris; test: Chronic toxicity in dog assessed as effect on food consumption up to 300 mg/kg/day, po administered for 28 days measured during compound dosing; format: organism-based, Canis lupus familiaris; conditions: in vivo, 672 h
[38] = test system: Canis familiaris; test: Chronic toxicity in dog assessed as ophthalmic lesions up to 300 mg/kg/day, po administered for 28 days; format: organism-based, Canis lupus familiaris; conditions: in vivo, 672 h
[39] = test system: Canis familiaris; test: Chronic toxicity in dog assessed as electrocardiogram changes up to 300 mg/kg/day, po administered for 28 days; format: organism-based, Canis lupus familiaris; conditions: in vivo, 672 h
[40] = test system: Canis familiaris; test: Chronic toxicity in dog assessed as hematological changes up to 300 mg/kg/day, po administered for 28 days measured during compound dosing; format: organism-based, Canis lupus familiaris; conditions: in vivo, 672 h
[41] = test system: Canis familiaris; test: Chronic toxicity in dog assessed as urinalysis parameters up to 300 mg/kg/day, po administered for 28 days measured during compound dosing; format: organism-based, Canis lupus familiaris; conditions: in vivo, 672 h
[42] = test system: Canis familiaris; test: Chronic toxicity in dog assessed as effect on serum troponin 1 levels up to 300 mg/kg/day, po administered for 28 days measured during compound dosing; format: organism-based, Canis lupus familiaris; conditions: in vivo, 672 h
[43] = test system: Canis familiaris; test: Chronic toxicity in dog assessed as histopathological alterations in cardiac tissues up to 300 mg/kg/day, po administered for 28 days; format: organism-based, Canis lupus familiaris; conditions: in vivo, 672 h

Cl.S=C(NCc1ccc2c(c1)OCO2)N1CCN(c2ncnc3c2oc2ccccc23)CC1 [AMUVATINIB HYDROCHLORIDE]
solubility [1]: 4000 µg/mL | Activity [2]: 113% | Activity [3]: Toxic | Activity [4]: 10.22 mm3/day | inhibition at 0.71 µM [5]: 26% | inhibition at 3.82 µM [6]: 42% | Cmax [7]: 371 ng/mL | Tmax [8]: 5 min | Tmax [9]: 30 to 720 min | Activity [10]: Non-Toxic | Activity [11]: Non-Toxic | Activity [12]: Non-Toxic | Activity [13]: Toxic | Activity [14]: Toxic | Activity [15]: Toxic | Activity [16]: Toxic | Activity [17]: Toxic | Activity [18]: Toxic | Activity [19]: Toxic | Activity [20]: Non-Toxic | Activity [21]: Non-Toxic | Activity [22]: Non-Toxic | Activity [23]: Toxic | Activity [24]: Toxic | Activity [25]: Toxic | Activity [26]: Toxic | Activity [27]: Non-Toxic | Activity [28]: Non-Toxic | NOAEL at 672 h [29]: 20 mg/kg/day | Activity [30]: 200 mg/kg/day | Activity [31]: Toxic | Activity [32]: Toxic | Activity [33]: Toxic | Activity [34]: Non-Toxic | Activity [35]: Toxic | Activity [36]: Toxic | Activity [37]: Non-Toxic | Activity [38]: Non-Toxic | Activity [39]: Non-Toxic | Activity [40]: Non-Toxic | Activity [41]: Non-Toxic | Activity [42]: Non-Toxic | Activity [43]: Non-Toxic

— ChEMBL document CHEMBL3991943, “Pharmaceutical formulations comprising salts of a protein kinase inhibitor and methods of using same” (2013)
